Assay results as given in US7829728B2, “Diarymethyl and related compounds” (Theravance, Inc., priority 2003, dated 2010).

System: guinea pigs, pilocarpine-evoked salivation
Assay: Inhalation guinea pig salivation assay (Assay Test Procedure H)
Format: in vivo
Conditions: ratio of anti-sialagogue ID50 to bronchoprotective ID50, guinea pig
Method: Guinea pigs (Charles River, Wilmington, Mass.) weighing 200-350 g are acclimated to the in-house guinea pig colony for at least 3 days following arrival. Test compound or vehicle are dosed via inhalation (IH) over a 10 minute time period in a pie shaped dosing chamber (R+S Molds, San Carlos, Calif.). Test solutions are dissolved in sterile water and delivered using a nebulizer filled with 5.0 mL of dosing solution. Guinea pigs are restrained in the inhalation chamber for 30 minutes. During this time, guinea pigs are restricted to an area of approximately 110 sq. cm. This space is adequate for the animals to turn freely, reposition themselves, and allow for grooming. […] Upon completion of nebulization, guinea pigs are evaluated at 1.5, 6, 12, 24, 48, or 72 hrs after treatment.
Guinea pigs are anesthetized one hour before testing with an intramuscular (IM) injection of a mixture of ketamine 43.75 mg/kg, xylazine 3.5 mg/kg, and acepromazine 1.05 mg/kg at an 0.88 mL/kg volume. […] Saliva is collected for 10 minutes, at which point the gauze pad is weighed and the difference in weight recorded to determine the amount of accumulated saliva (in mg). The mean amount of saliva collected for animals receiving the vehicle and each dose of test compound is calculated. […] Results are calculated using result means (n=3 or greater). […]

For `NC(=O)C(c1ccccc1)(c1ccccc1)[C@@H]1CCN(CCC(=O)NCCCCCNC[C@H](O)c2ccc(O)c3[nH]c(=O)ccc23)C1` [Example 3, 3-[(S)-3-(Carbamoyldiphenylmethyl)pyrrolidin-1-yl]-N-{5-[(R)-2-hydroxy-2-(8-hydroxy-2-oxo-1,2-dihydroquinolin-5-yl)ethylamino]pentyl}propionamide], the apparent lung-selectivity index was “greater than 5”.
